# Data: article PMC12525602, “Identification of Selective α-Glucosidase Inhibitors via Virtual Screening with Machine Learning” (Molecules, 2025)
# Like-named read-outs stand apart in the source and are kept apart here.
# Assays:
# α-glucosidase [1] = target: α-glucosidase; design: method as in ref 14 (Lim et al. 2022); details: ref 14 (Lim et al. 2022); cited from earlier work
# α-amylase [2] = target: α-amylase; design: method as in ref 14 (Lim et al. 2022); details: ref 14 (Lim et al. 2022); cited from earlier work
# α-glucosidase [3] = target: T1, α-glucosidase (Saccharomyces cerevisiae, UniProt P53341); assay: Synchronous fluorescence spectroscopy (RSQF); type: binding
# T1 construct: purchased Sigma-Aldrich Co. (St. Louis, MI, USA)
# T1 sequence (P53341 whole entry): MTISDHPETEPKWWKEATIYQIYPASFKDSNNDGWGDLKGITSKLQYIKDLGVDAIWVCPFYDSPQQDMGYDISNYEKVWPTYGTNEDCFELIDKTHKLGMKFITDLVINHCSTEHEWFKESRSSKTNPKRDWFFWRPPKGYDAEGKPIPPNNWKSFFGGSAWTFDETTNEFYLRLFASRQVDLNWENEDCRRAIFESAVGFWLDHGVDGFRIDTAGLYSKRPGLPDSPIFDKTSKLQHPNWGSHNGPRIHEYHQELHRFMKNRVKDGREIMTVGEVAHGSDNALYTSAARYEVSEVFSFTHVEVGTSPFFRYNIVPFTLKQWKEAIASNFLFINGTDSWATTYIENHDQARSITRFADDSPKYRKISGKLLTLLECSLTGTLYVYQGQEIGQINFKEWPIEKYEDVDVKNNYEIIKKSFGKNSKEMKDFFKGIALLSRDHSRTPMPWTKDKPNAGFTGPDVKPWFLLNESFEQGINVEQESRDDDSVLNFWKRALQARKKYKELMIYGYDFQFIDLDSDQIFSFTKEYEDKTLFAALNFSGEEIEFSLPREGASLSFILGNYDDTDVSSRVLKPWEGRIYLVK
# Experimental: Changes in the microenvironment of tyrosine (Tyr) and tryptophan (Trp) residue fluorophores were detected simultaneously. The excitation and emission wavelength intervals were set to 15 nm and 60 nm, respectively, and the synchronized fluorescence spectra from 260 to 320 nm were determined. The synchronized fluorescence burst ratio (RSFQ) was calculated as follows:(7) RSQF=1−F/F0
# α-glucosidase [4] = target: T1, α-glucosidase; assay: Fluorescence quenching experiment (Stern-Volmer); type: binding; details: for Kq (bimolecular quenching constant): given as number×10 with exponent 12; for Kd: Ka (binding constant)
# Experimental: The fluorescence quenching experiment was modified somewhat based on previous studies. Fluorescence was determined by titrating α-glucosidase (1.0 mL, 2 U/mL) with different concentrations of inhibited solutions (1.0 mL, 0–200 mM) and left to equilibrate for 5 min. […] Fluorescence burst analysis was performed based on the Stern-Volmer (3) equation.(3) F0/F=1+Kqτ0Q=1+KsvQ
# F and F0 are the fluorescence intensities with and without inhibitor, respectively, Ksv is the Stern-Volmer bursting constant, Kq is the bimolecular bursting constant, and [Q] is the concentration of inhibitor.
# When the bursting mode conforms to static bursting, the binding constant Ka and the number of binding sites for each enzyme can be calculated from Equation (4).(4) logF0−F/F=logKa+nlogQ
# Ka is the binding constant and n is the number of binding sites.
# The thermodynamic parameters ∆H, ∆S, and ∆G denote the change in heat, entropy, and free energy, respectively.
# α-glucosidase [5] = target: T1, α-glucosidase; assay: biochemical; type: biochemical
# Experimental: To further investigate the inhibition kinetics of the candidate compounds, α-glucosidase activity was determined at different substrate concentrations. The Lineweaver-Burk expression method in Equation (1) was used to test the reaction of a series of compounds with the substrate pNαGP, and the values of maximum velocity (Vmax) and Michaelis-Menten constant (Km) were calculated.(1) 1/v=Km/Vmax1/[S]+1/Vmax where Vmax and Km are the maximum velocity of the enzyme and the Michaelis-Menten constant in the absence of inhibitor, respectively. [S] is the concentration of substrate and inhibitor.(2) Slope=Km/Vmax+Km/Vmax·KiI where v is the initial reaction rate, Vmax is the maximum initial reaction rate, [I] is the concentration of […], and Km is the Michaelis-Menten constant.
# C57BL/6J mice = assay: In vivo starch digestion inhibition experiment (postprandial blood glucose); details: normal mice, 10 mg/kg by gavage, 2 g/kg starch, 0-120 min; p < 0.001 versus controls
# From the text: After the in vitro validation, in order to further characterize the effect of the inhibitor on postprandial glycemic control, we performed in vivo characterization by gavage in mice. Eight-week-old male C57BL/6J mice (purchased from Beijing Huafukang Laboratory Animals, Beijing, China) were used for the experiments. The animal experimental procedures were approved by the Ethics Committee on Laboratory Animal Management and Welfare of Beijing Huafuqian Times Technology Co. Ltd. (Ethical Review Approval No. HYSD2023-04), and local and national ethical guidelines were strictly observed. All mice were placed in a controlled environment with a temperature of 25 °C, relative humidity of 60%, and a light/dark cycle of 12/12 h. Following overnight fasting, gastric intubation was performed on mice in the control group, acarbose group, […] group, […] group, […] group, and […] group. The control group received saline infusion to eliminate confounding factors during administration. […] The remaining groups each received a corresponding concentration (10 mg/kg) of the test compound dissolved in saline solution to evaluate inhibitor efficacy. 2 g/kg of starch was given after 5 min, and the […] at 0 min, 10 min, 20 min, 30 min, 40 min, 60 min, 90 min and 120 min.
# α-amylase [6] = target: T2, α-amylase (Sus scrofa, UniProt P00690); assay: In vitro α-amylase activity assay (G3-CNP, absorbance 405 nm); type: biochemical, porcine; design: inhibition of α-amylase: dose or concentration left out as unconfirmed
# T2 construct: α-amylase isolated from porcine pancreas; purchased Sigma-Aldrich Co. (St. Louis, MI, USA); host or cells: porcine pancreas
# T2 sequence (P00690 16-511): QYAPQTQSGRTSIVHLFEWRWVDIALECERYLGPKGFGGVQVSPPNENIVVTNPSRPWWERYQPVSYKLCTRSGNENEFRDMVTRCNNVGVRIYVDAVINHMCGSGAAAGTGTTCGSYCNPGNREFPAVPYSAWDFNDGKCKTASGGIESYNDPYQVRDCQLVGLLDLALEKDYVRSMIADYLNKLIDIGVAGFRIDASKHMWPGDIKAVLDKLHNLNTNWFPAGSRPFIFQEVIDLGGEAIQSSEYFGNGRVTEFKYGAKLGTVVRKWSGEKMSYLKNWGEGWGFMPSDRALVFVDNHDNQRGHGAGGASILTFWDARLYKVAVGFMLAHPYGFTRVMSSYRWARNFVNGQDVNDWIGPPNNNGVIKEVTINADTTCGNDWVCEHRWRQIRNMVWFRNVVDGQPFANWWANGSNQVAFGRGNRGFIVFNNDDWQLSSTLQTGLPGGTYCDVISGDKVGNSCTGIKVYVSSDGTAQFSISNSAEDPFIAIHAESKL
# Experimental: (§1) The inhibitors used in this study were purchased from the ChemDiv website. Unless otherwise stated, all other reagents used in this experiment were analytically pure reagents purchased from Sigma-Aldrich Co. (St. Louis, MI, USA).
# The in vitro α-amylase activity assay was determined spectrophotometrically as previously described with only minor modifications. A phosphate-buffer solution at pH 6.8 was configured to obtain α-amylase 5 U/mL and 2-chloro-4-nitrophenyl α-D-maltotrioside (G3-CNP) 0.6 mM. […] Gradient dilution with phosphate-buffer solution was performed to obtain sample solutions of different concentrations.
# (§2) The IC50 values of the tested compounds were calculated using nonlinear fitting (logit method).
# α-glucosidase [7] = target: T1, α-glucosidase; assay: In vitro α-glucosidase activity assay (pNαGP, absorbance 405 nm); type: biochemical
# Experimental: as §1
# The in vitro α-glucosidase activity assay was determined spectrophotometrically as previously described with only minor modifications. A phosphate-buffer solution at pH 6.8 was configured to obtain 0.5 U/mL of α-glucosidase and 0.6 mM of […] (pNαGP). […] Gradient dilution with phosphate-buffer solution was performed to obtain sample solutions of different concentrations. First, different concentrations of compounds (10 µL), enzyme solution (40 µL) and potassium phosphate buffer (100 µL) were pre-incubated in a 96-well plate for 10 min at 37 °C. Then, 50 µL of substrate (pNαGP, 0.6 mM) was added to each microtiter well and incubated for 20 min at 37 °C, and the absorbance at 405 nm was measured to detect the change in enzyme activity.
# The enzyme inhibitory activity of the tested compounds was calculated as follows: α−glucosidase inhibition rate%=Abs control−Abs sample/Abs control×100
# as §2
# α-amylase [8] = target: α-amylase; design: method as in ref 15 (Sun et al. 2017); details: ref 15 (Sun et al. 2017); cited from earlier work
# α-glucosidase [9] = target: α-glucosidase; design: method as in ref 15 (Sun et al. 2017); details: ref 15 (Sun et al. 2017); cited from earlier work
smiles,measurement,setting,value
"O=c1c(O)c(-c2ccc(O)c(O)c2)oc2ccccc12 [3′,4′-dihydroxyflavonol]",IC50,α-glucosidase [1],34.3 µM
same,IC50,α-amylase [2],119 µM
"C[C@H]1O[C@H](O[C@H]2[C@H](O)[C@@H](O)[C@@H](O[C@H]3[C@H](O)[C@@H](O)C(O)O[C@@H]3CO)O[C@@H]2CO)[C@H](O)[C@@H](O)[C@@H]1N[C@H]1C=C(CO)[C@@H](O)[C@H](O)[C@H]1O (some centres unmarked) [Acarbose, acarbose, reference compound]","RSQF values, Trp (Δλ = 60 nm) versus Tyr (Δλ = 15 nm)",α-glucosidase [3],very low
same,Ksv (quenching constant),α-glucosidase [4]; T 300.15 K,0.01 ±0.01 104 /M
same,n (number of binding sites),α-glucosidase [4]; T 300.15 K,1.04
same,Kq (bimolecular quenching constant),α-glucosidase [4]; T 300.15 K,0.01 ×10^12 (M·S)-1
same,Ksv (quenching constant),α-glucosidase [4]; T 305.15 K,0.02 ±0.01 104 /M
same,n (number of binding sites),α-glucosidase [4]; T 305.15 K,0.98
same,Kq (bimolecular quenching constant),α-glucosidase [4]; T 305.15 K,0.02 ×10^12 (M·S)-1
same,Type of inhibition,α-glucosidase [5],Mixed
same,Vmax,α-glucosidase [5]; [I] […] μM,5.92±0.06 ×10-1µM/min
same,Vmax,α-glucosidase [5]; [I] 500 μM,6.18±0.04 ×10-1µM/min
same,Vmax,α-glucosidase [5]; [I] 1000 μM,5.90±0.03 ×10-1µM/min
same,Vmax,α-glucosidase [5]; [I] 2000 μM,2.42±0.06 ×10-1µM/min
same,Vmax,α-glucosidase [5]; [I] […],5.96±0.06 ×10-1µM/min
same,"blood glucose area under the curve (AUC), total glycemic exposure",C57BL/6J mice,significantly reduced
COc1ccc(-c2nn(-c3ccccc3)c(C)c2-c2cc(C#N)c(C#N)cc2O)cc1 [K802],IC50,α-amylase [6],> 500 µM
same,inhibition of α-amylase,α-amylase [6]; […] µM,minimal inhibition
same,"RSQF values, Trp (Δλ = 60 nm) versus Tyr (Δλ = 15 nm)",α-glucosidase [3],significantly higher
same,Kd,α-glucosidase [4]; T 300.15 K,2.51 µM
same,Kd,α-glucosidase [4]; T 305.15 K,19.6 µM
same,Kd,α-glucosidase [4]; T 310.15 K,23.8 µM
same,Ksv (quenching constant),α-glucosidase [4]; T 300.15 K,0.59 ±0.02 104 /M
same,n (number of binding sites),α-glucosidase [4]; T 300.15 K,1.16
same,Kq (bimolecular quenching constant),α-glucosidase [4]; T 300.15 K,0.59 ×10^12 (M·S)-1
same,Ksv (quenching constant),α-glucosidase [4]; T 305.15 K,0.42 ±0.04 104 /M
same,n (number of binding sites),α-glucosidase [4]; T 305.15 K,0.99
same,Kq (bimolecular quenching constant),α-glucosidase [4]; T 305.15 K,0.42 ×10^12 (M·S)-1
same,Ksv (quenching constant),α-glucosidase [4]; T 310.15 K,0.39 ±0.02 104 /M
same,n (number of binding sites),α-glucosidase [4]; T 310.15 K,0.79
same,Kq (bimolecular quenching constant),α-glucosidase [4]; T 310.15 K,0.39 ×10^12 (M·S)-1
same,IC50,α-glucosidase [7],74.7 ± 4.1 µM
same,inhibition at 250 µM,α-glucosidase [7]; read-out: inhibition of α-glucosidase,~100%
same,Type of inhibition,α-glucosidase [5],Competitive
same,Vmax,α-glucosidase [5]; [I] 7.5 μM,9.17±0.04 ×10-1µM/min
same,Vmax,α-glucosidase [5]; [I] 15 μM,9.83±0.06 ×10-1µM/min
same,Vmax,α-glucosidase [5]; [I] 30 μM,9.35±0.03 ×10-1µM/min
same,Vmax,α-glucosidase [5]; [I] 50 μM,9.62±0.05 ×10-1µM/min
same,Vmax,α-glucosidase [5]; [I] 70 μM,9.48±0.02 ×10-1µM/min
O=C(/C=C/c1ccc(O)cc1)c1c(O)cc(O)cc1O [chalconaringenin],IC50,α-amylase [8],> 100 µM
same,IC50,α-glucosidase [9],20 µM
